# According to publication PMC12494831, “Discovery of new pyridine 3-carboxylic acid-based pharmacophores as dual anti-inflammatory and anti-hyperglycemic agents” (Scientific Reports, 2025):
# Columns and labels:
# [1] = ABTS cation radical scavenging (734 nm); conditions: for IC50: read-out: ABTS IC50±SD
# Experimental: (§1) The experimental method principle relies on the degradation of the purple color of the DPPH radical and the blue color reduction of the ABTS cation radical. This is due to consuming the electron or hydrogen radical from the antioxidant (A-H). Both assays were measured at 517 nm and 734 nm, respectively. The distinction of color changes illustrates the potential scavenging activity of the inhibitor molecules in terms of hydrogen-donating proficiency. From this, we can conclude the anti-oxidant efficacy.
# In brief, 7.0 mM ABTS in H2O and 2.5 mM potassium persulfate (1:1) were shaken well to generate ABTS cation radicals and kept in the dark at RT for 15–20 h before it is used for the experiment. After, the radical was mixed with the synthesized molecules at different concentrations (20 µM to 100 µM). The resultant solution was measured for absorbance at 734 nm. Ascorbic acid is the positive control for this experiment.1 [drawing 1]
# α-amylase (EC.3.2.1.1) = biological target: T1, α-amylase (EC.3.2.1.1) (Homo sapiens, UniProt P04746); experiment: In vitro α-amylase inhibition (starch/DNS, 540 nm); type: biochemical; conditions: for IC50: test concentrations 2-10 µg, read-out: α-Amylase IC50±SD (converted)
# T1 sequence (P04746 16-511): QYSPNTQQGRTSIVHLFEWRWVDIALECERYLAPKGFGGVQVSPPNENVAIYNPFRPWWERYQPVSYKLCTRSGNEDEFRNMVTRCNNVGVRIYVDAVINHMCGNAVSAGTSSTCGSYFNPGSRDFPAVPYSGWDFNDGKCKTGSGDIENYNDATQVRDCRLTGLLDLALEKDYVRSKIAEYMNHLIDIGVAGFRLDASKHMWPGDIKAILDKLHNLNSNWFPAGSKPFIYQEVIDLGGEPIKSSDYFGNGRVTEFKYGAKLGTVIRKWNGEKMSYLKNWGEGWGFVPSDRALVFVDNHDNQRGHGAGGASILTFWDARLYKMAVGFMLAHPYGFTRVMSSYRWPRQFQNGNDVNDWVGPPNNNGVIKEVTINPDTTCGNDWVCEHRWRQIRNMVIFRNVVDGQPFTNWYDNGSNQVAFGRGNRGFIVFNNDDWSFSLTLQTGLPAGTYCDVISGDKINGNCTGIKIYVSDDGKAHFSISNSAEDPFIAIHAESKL
# Experimental: α-Amylase enzyme and other chemical reagents are used for enzyme inhibitory activity. The characterized compounds are diluted in an analytical grad solvent (DMSO) system at 1 mg/mL solution concentration. The activity reaction of the synthesized analogues on the enzyme was treated at final concentrations of 2 to 10 µg. In the interaction between enzyme and compounds, 10 min incubation was maintained before the inhibitory activity started. The enzyme-receptor inhibition efficiency was calculated and compared with the positive control.
# Sodium phosphate buffer 0.2 mM (pH 6.9 with 6 × 10^− 4 M NaCl) in 500 µL enzyme solution (0.5 mg/mL) was taken and incubated with test samples (2–10 µg/mL) at room temperature for 10 min. A starch (1%) solution of 500 µL with phosphate buffer was added to all test inhibitor samples; further, the tubes were incubated for 10 min at 28 °C. The reaction test tubes were incubated for another 5 min in the water bath (100 °C) after the addition of the color reagent dinitro salicylic acid and cooled at room temperature until reached. Finally, 10 mL of distilled water was mixed with each test tube, and the colored mixture was measured at a fixed wavelength of 540 nm. The absorbance without sample solution (blank) and control (buffer and standard drug sample) was measured at 540 nm. The α-amylase inhibition efficiency was validated using the following equation:2 [drawing 2]
# [2] = test system: RAW macrophage cells (RAW 264.7); experiment: MTT cell viability assay; type: cell-based; conditions: RAW macrophage cells
# Experimental: (§2) The toxicity of the molecule was investigated by the MTT cell viability assay employing RAW macrophage cells. For this study, two lead compounds, 2b and 2e, were screened based on the in vitro results. […] (The OD values in Tables S6 and S7)
# (§3) The MTT ((3-(4,5-Dimethylthiazol-2-yl)-2,5-Diphenyltetrazolium Bromide)) assay was employed to determine viability for the synthesized potent compounds 2b and 2e; the cell viability results portray the compounds’ cytotoxicity. The assay was conducted on RAW macrophage cells (RAW 264.7) with various dilutions of 2b and 2e (10, 20, 30, 40, and 50 µM). The results were confirmed with a control.
# MTT cell viability assay = type: cell-based; conditions: mouse, RAW 264.7 macrophage cells, control 100
# Experimental: as §2, §3
# [3] = DPPH radical scavenging (517 nm); conditions: for IC50: read-out: DPPH IC50±SD
# Experimental: as §1
# Methanolic DPPH solution (0.15 mM) was prepared, and 1.0 mL of DPPH solution was mixed with 3.0 mL of synthesized molecules at different concentrations (20 µM to 100 µM). The mixture was constantly swirled and stored RT for 30 min, followed by absorbance measurement at 517 nm.
# human RBC = experiment: Anti-inflammatory activity: hypotonic solution-induced human RBC hemolysis (560 nm); type: cell-based; conditions: for IC50: induced human RBC hemolysis, read-out: Inflammatory IC50±SD
# Experimental: All synthesized compounds are validated in human RBC (blood sample); the blood sample was collected from a healthy volunteer in an EDTA tube. The EDTA tube further proceeded with centrifugation at 3000 rpm for 30 min. A supernatant (which contains plasma and leucocytes) solution was isolated, and the obtained RBC (red blood cells) was further treated with Alsever’s reagent. Alsever’s reagent was prepared as follows: sodium citrate (0.8 g, 2.6 mmol), dextrose (2 g, 11.0 mmol), citric acid (0.050 g, […]), and sodium chloride (0.42 g, 7.0 mmol) were solubilized in 100 mL of distilled water. The above mixture was centrifuged for 30 min at 3000 rpm. Then, colloidal blood cells were separated, carefully transferred, and washed with 0.85% of the isosaline solution; this process continued until a clear solution appeared. Employing coagulated RBC and generated human erythrocyte hemolysis, the anti-inflammatory activity and potential of the synthesized entities were evaluated. The tested compounds are prepared at different concentrations for the inhibition activity of inflammation, along with 100 µL of a purified RBC sample utilized. All characterized samples were followed by adding 5.0 mL of trisodium phosphate (10 mM) and 5.0 mL of sodium chloride (5.0 mM) buffer solutions. After the addition of the above mixtures, the test samples are incubated for 15 min at room temperature with RBC and hypotonic mixtures. After incubation, the mixture was centrifuged at 3000 rpm for 15 min. The final supernatant liquid solution was measured at 560 nm using a UV-visible spectrophotometer.3 [drawing 3]
smiles,measurement,setting,value
"O=C(NCc1ccc2c(c1)OCO2)c1cccnc1 [Compound 2e, N-(Benzo[1,3]dioxol-5-ylmethyl)nicotinamide]",ABTS Inhibition %,[1]; 20 µM,23.4%
same,ABTS Inhibition %,[1]; 40 µM,27.9%
same,ABTS Inhibition %,[1]; 60 µM,29.3%
same,ABTS Inhibition %,[1]; 80 µM,35.4%
same,ABTS Inhibition %,[1]; 100 µM,43%
same,IC50,[1],45.63 ± 0.19 µM
same,α-Amylase Inhibition %,α-amylase (EC.3.2.1.1); 2 µg,86.09%
same,α-Amylase Inhibition %,α-amylase (EC.3.2.1.1); 4 µg,77.3%
same,α-Amylase Inhibition %,α-amylase (EC.3.2.1.1); 6 µg,74.08%
same,α-Amylase Inhibition %,α-amylase (EC.3.2.1.1); 8 µg,72.76%
same,α-Amylase Inhibition %,α-amylase (EC.3.2.1.1); 10 µg,56.22%
same,IC50,α-amylase (EC.3.2.1.1),5.17 µM
same,"Toxicity, outcome of the MTT cell viability assay (in words)",[2],viable for the cell line
same,viability at 10 µM,MTT cell viability assay; 10 µM,89.1%
same,viability at 20 µM,MTT cell viability assay; 20 µM,81.7%
same,viability at 30 µM,MTT cell viability assay; 30 µM,74.8%
same,viability at 40 µM,MTT cell viability assay; 40 µM,65.1%
same,viability at 50 µM,MTT cell viability assay; 50 µM,56.4%
same,DPPH Inhibition %,[3]; 20 µM,29.2%
same,DPPH Inhibition %,[3]; 40 µM,47.1%
same,DPPH Inhibition %,[3]; 60 µM,49.2%
same,DPPH Inhibition %,[3]; 80 µM,55.8%
same,DPPH Inhibition %,[3]; 100 µM,59%
same,IC50,[3],52.09 ± 0.15 µM
same,inhibition at 20 µM,human RBC,33.6%
same,inhibition at 40 µM,human RBC,42.8%
same,inhibition at 60 µM,human RBC,43%
same,inhibition at 80 µM,human RBC,48.2%
same,inhibition at 100 µM,human RBC,60%
same,IC50,human RBC,14.1 ± 0.15 µM
"CCOc1ccc2nc(NC(=O)c3cccnc3)sc2c1 [Compound 2k, N-(6-ethoxybenzothiazol-2-yl) nicotinamide]",ABTS Inhibition %,[1]; 20 µM,37.6%
same,ABTS Inhibition %,[1]; 40 µM,41.8%
same,ABTS Inhibition %,[1]; 60 µM,46.3%
same,ABTS Inhibition %,[1]; 80 µM,47.9%
same,ABTS Inhibition %,[1]; 100 µM,55.8%
same,IC50,[1],88.03 ± 0.17 µM
same,α-Amylase Inhibition %,α-amylase (EC.3.2.1.1); 2 µg,74.81%
same,α-Amylase Inhibition %,α-amylase (EC.3.2.1.1); 4 µg,74.52%
same,α-Amylase Inhibition %,α-amylase (EC.3.2.1.1); 6 µg,69.98%
same,α-Amylase Inhibition %,α-amylase (EC.3.2.1.1); 8 µg,69.69%
same,α-Amylase Inhibition %,α-amylase (EC.3.2.1.1); 10 µg,55.63%
same,IC50,α-amylase (EC.3.2.1.1),5.06 µM
same,DPPH Inhibition %,[3]; 20 µM,8.89%
same,DPPH Inhibition %,[3]; 40 µM,33.34%
same,DPPH Inhibition %,[3]; 60 µM,40.65%
same,DPPH Inhibition %,[3]; 80 µM,49.83%
same,DPPH Inhibition %,[3]; 100 µM,52.31%
same,IC50,[3],79.62 ± 0.14 µM
same,inhibition at 20 µM,human RBC,48.6%
same,inhibition at 40 µM,human RBC,55%
same,inhibition at 60 µM,human RBC,66.8%
same,inhibition at 80 µM,human RBC,74.5%
same,inhibition at 100 µM,human RBC,87.5%
same,IC50,human RBC,25.86 ± 0.23 µM
